Results taken from patent publication US11814444B2, “Cyclic polypeptides for PCSK9 inhibition” (Ra Pharmaceuticals, Inc., priority 2018, dated 2023).
Numbered stars: 1 amine (or outer) side, 2 acyl side, 3 side chain; on linkers, the order of the positions; unused ones are H or OH. Bridge positions count the residues as written; N and C are the ends. Square brackets hold non-standard residues; d marks the D form. Peptide text beside a SMILES is read from it. * marks the point of attachment. X3 = O=C([C@@H]1C[C@@H](SCc2ccc(C[*:3])cc2)CN1[*:1])[*:2]; Trp(5-F) = N[C@@H](Cc1c[nH]c2ccc(F)cc12)C(=O)O; Trp(7-aza) = N[C@@H](Cc1c[nH]c2ncccc12)C(=O)O; Pro(cis-4-F) = O=C(O)[C@@H]1C[C@H](F)CN1; X5 = O=C([C@H](Cc1cnco1)N[*:1])[*:2]; mXylylene = c1cc(C[*:1])cc(C[*:2])c1; Hyp = O=C(O)[C@@H]1C[C@@H](O)CN1; NMeE = CN[C@@H](CCC(=O)O)C(=O)O; Aad = N[C@@H](CCCC(=O)O)C(=O)O; Chg = N[C@H](C(=O)O)C1CCCCC1; Pen = CC(C)(S)[C@H](N)C(=O)O; Tle = CC(C)(C)[C@H](N)C(=O)O; αMeV = CC(C)[C@](C)(N)C(=O)O; NMeS = CN[C@@H](CO)C(=O)O; Iva = CC[C@](C)(N)C(=O)O; NMeA = CN[C@@H](C)C(=O)O; Ac5c = NC1(C(=O)O)CCCC1; Nva = CCC[C@H](N)C(=O)O; Ac4c = NC1(C(=O)O)CCC1; X4 = C(CC[*:2])C[*:1]; Aib = CC(C)(N)C(=O)O; Ms = CS(=O)(=O)*; Mpa = O=C(O)CCS

How the values were obtained:
[1] = biological target: human PCSK9 / human LDLR EGFa domain interaction (Homo sapiens, UniProt Q8NBP7); test: TR-FRET assay of inhibition of the PCSK9-LDLR protein-protein interaction; type: binding; settings: 20 nM avitag-biotinylated human PCSK9, 20 nM his-tagged human LDLR EGFa domain, 2 hours, room temperature
Outline: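 Inhibition of PCSK9 binding to the LDLR EGFa domain, each protein at 20 nM, detected by TR-FRET using streptavidin and anti-His donor/acceptor labels (5 nM). Two-hour room-temperature incubation in calcium-containing HEPES buffer.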

PCSK9 = PCSK9 (Homo sapiens, UniProt Q8NBP7); test: PCSK9 Alexa FRET Standard assay (displacement of AlexaFluor647 tagged cyclic peptide Reagent A); type: binding; settings: 0.5 nM PCSK9, 20 nM AF cyclic peptide Reagent A
Outline: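 TR-FRET displacement: 0.5 nM biotinylated PCSK9 with 1.25 nM Strep-Eu and 20 nM AlexaFluor-tagged cyclic peptide (final) in 50 mM HEPES pH 7.4, 0.15 M NaCl, 5 mM CaCl2, 0.01% BSA, 0.01% P20, ≥2 h at room temperature. IC50 from sigmoidal fit, converted to Ki via peptide KD; falling Eu counts flagged false positives.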

Chain of human PCSK9 / human LDLR EGFa domain interaction (Q8NBP7 153-692): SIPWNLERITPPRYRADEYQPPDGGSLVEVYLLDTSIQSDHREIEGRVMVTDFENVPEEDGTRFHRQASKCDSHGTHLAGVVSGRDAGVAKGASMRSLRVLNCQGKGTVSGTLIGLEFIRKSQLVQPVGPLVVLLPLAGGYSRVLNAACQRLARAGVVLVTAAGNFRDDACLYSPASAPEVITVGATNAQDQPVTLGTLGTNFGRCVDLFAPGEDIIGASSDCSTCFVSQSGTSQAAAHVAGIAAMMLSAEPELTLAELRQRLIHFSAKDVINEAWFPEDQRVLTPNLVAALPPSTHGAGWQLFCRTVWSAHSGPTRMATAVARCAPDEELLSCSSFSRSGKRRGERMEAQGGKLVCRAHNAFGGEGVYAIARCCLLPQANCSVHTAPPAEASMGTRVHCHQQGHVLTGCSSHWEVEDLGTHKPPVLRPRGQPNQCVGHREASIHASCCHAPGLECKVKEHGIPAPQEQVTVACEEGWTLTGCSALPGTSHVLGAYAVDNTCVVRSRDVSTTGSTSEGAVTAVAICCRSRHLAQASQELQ
Chain of human PCSK9 / human LDLR EGFa domain interaction (Q8NBP7 31-152 partner limits assumed): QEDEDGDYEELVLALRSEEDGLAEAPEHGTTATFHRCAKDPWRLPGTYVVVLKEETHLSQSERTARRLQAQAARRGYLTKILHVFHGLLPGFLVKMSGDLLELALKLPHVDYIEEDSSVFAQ
Chain of PCSK9 (Q8NBP7 153-692): as the sequence (Q8NBP7 153-692) above

SMILES	IC50 [1] [nM]	IC50 (PCSK9) [nM]
CC[C@]1(C)NC(=O)[C@H](Cc2c[nH]c3ncccc23)NC(=O)[C@H]([C@@H](C)O)NC(=O)[C@@H]2CCCN2C(=O)[C@H](Cc2ccc(O)cc2)NC(=O)[C@H](C(C)(C)C)NC(=O)[C@@H](NC(C)=O)CSCc2cccc(c2)CSC[C@@H](C(N)=O)NC(=O)[C@H]([C@@H](C)O)NC(=O)[C@](C)(C(C)C)NC(=O)[C@H](Cc2ccc(O)cc2)NC(=O)[C@H](C)NC1=O [Compound 182] (Ac-C[Tle]YPT[Trp(7-aza)][Iva]AY[αMeV]TC-NH2; linker 1-12 via mXylylene)	21000 to 50000	1000 to 21000
CCC[C@@H]1NC(=O)[C@H](Cc2ccc(O)cc2)NC(=O)[C@H](CCC(=O)O)N(C)C(=O)[C@H](CCC)NC(=O)[C@H](Cc2c[nH]c3ncccc23)NC(=O)[C@H]([C@@H](C)O)NC(=O)[C@H](Cc2c[nH]cn2)NC(=O)[C@H](Cc2ccc(O)cc2)NC(=O)[C@H](C(C)(C)C)NC(=O)CCSCc2cccc(c2)CSC[C@@H](C(N)=O)NC(=O)[C@H]([C@@H](C)O)NC1=O [Compound 208] ([Mpa][Tle]YHT[Trp(7-aza)][Nva][NMeE]Y[Nva]TC-NH2; linker 1-12 via mXylylene)	50000 to 100000	50000 to 100000
CC(=O)N[C@H]1CSCc2cccc(c2)CSC[C@H](C(N)=O)NC(=O)[C@H]([C@@H](C)O)NC(=O)[C@](C)(C(C)C)NC(=O)[C@H](Cc2ccc(O)cc2)NC(=O)[C@H](C)NC(=O)C2(CCC2)NC(=O)[C@H](Cc2c[nH]c3ncccc23)NC(=O)[C@H]([C@@H](C)O)NC(=O)[C@@H]2C[C@@H]3CN2C(=O)[C@H](Cc2ccc(O)cc2)NC(=O)[C@H](NC1=O)[C@H](C)OCCCCO3 [Compound 343] (Ac-C[dT]Y[Hyp]T[Trp(7-aza)][Ac4c]AY[αMeV]T[dC]-NH2; linker 1-12 via mXylylene; linker 2-4 via X4)	21000 to 50000	1000 to 21000
CCC[C@@H]1NC(=O)[C@H](Cc2ccc(O)cc2)NC(=O)[C@H](CCC(=O)O)NC(=O)[C@H](C)N(C)C(=O)[C@H](Cc2c[nH]c3ncccc23)NC(=O)[C@H]([C@@H](C)O)NC(=O)[C@H](Cc2c[nH]cn2)NC(=O)[C@H](Cc2ccc(O)cc2)NC(=O)[C@H](C(C)(C)C)NC(=O)CCSCc2cccc(c2)CSC[C@@H](C(N)=O)NC(=O)[C@H]([C@@H](C)O)NC1=O [Compound 207] ([Mpa][Tle]YHT[Trp(7-aza)][NMeA]EY[Nva]TC-NH2; linker 1-12 via mXylylene)	50000 to 100000	50000 to 100000
CCC[C@@H]1NC(=O)[C@H](Cc2ccc(O)cc2)NC(=O)[C@H](CCC(=O)O)NC(=O)[C@H](C2CCCCC2)NC(=O)[C@H](Cc2c[nH]c3ncccc23)NC(=O)[C@H]([C@@H](C)O)NC(=O)[C@H](Cc2c[nH]cn2)NC(=O)[C@H](Cc2ccc(O)cc2)NC(=O)[C@H](C(C)(C)C)NC(=O)CCSCc2cccc(c2)CSC[C@@H](C(N)=O)NC(=O)[C@H]([C@@H](C)O)NC1=O [Compound 273] ([Mpa][Tle]YHT[Trp(7-aza)][Chg]EY[Nva]TC-NH2; linker 1-12 via mXylylene)	100 to 1000	100 to 1000
CCC[C@@H]1NC(=O)[C@H](Cc2c[nH]c3ncccc23)NC(=O)[C@H]([C@@H](C)O)NC(=O)[C@H](Cc2cnco2)NC(=O)[C@H](Cc2ccc(O)cc2)NC(=O)[C@H](C(C)(C)C)NC(=O)CCSCc2cccc(c2)CSC[C@@H](C(N)=O)NC(=O)[C@H]([C@@H](C)O)NC(=O)[C@H](CCC)NC(=O)[C@H](Cc2ccc(O)cc2)NC(=O)[C@H](CCC(=O)O)NC1=O [Compound 106] ([Mpa][Tle]Y[X5]T[Trp(7-aza)][Nva]EY[Nva]TC-NH2; linker 1-12 via mXylylene)	100 to 1000	1000 to 21000

Now from value to compound:

IC50 [1] [nM]	IC50 (PCSK9) [nM]	SMILES
100 to 1000	1000 to 21000	CCC[C@@H]1NC(=O)[C@H](Cc2c[nH]c3ncccc23)NC(=O)[C@H]([C@@H](C)O)NC(=O)[C@H](Cc2c[nH]cn2)NC(=O)[C@H](Cc2ccc(O)cc2)NC(=O)[C@H](C(C)(C)C)NC(=O)CCSCc2cccc(c2)CSC[C@@H](C(N)=O)NC(=O)[C@H]([C@@H](C)O)NC(=O)[C@H](CCC)NC(=O)[C@H](Cc2ccc(O)cc2)NC(=O)[C@H](CCCC(=O)O)NC1=O [Compound 259] ([Mpa][Tle]YHT[Trp(7-aza)][Nva][Aad]Y[Nva]TC-NH2; linker 1-12 via mXylylene)
1 to 100	1 to 100	CC(=O)N[C@H]1CSCc2cccc(c2)CSC[C@H](C(N)=O)NC(=O)[C@H]([C@@H](C)O)NC(=O)[C@](C)(C(C)C)NC(=O)[C@H](Cc2ccc(O)cc2)NC(=O)[C@H](C)NC(=O)C2(CCCC2)NC(=O)[C@H](Cc2c[nH]c3ncccc23)NC(=O)[C@H]([C@@H](C)O)NC(=O)[C@@H]2CCCN2C(=O)[C@H](Cc2ccc(O)cc2)NC(=O)[C@H](C(C)(C)C)NC1=O [Compound 186] (Ac-C[Tle]YPT[Trp(7-aza)][Ac5c]AY[αMeV]T[dC]-NH2; linker 1-12 via mXylylene)
1 to 100	1 to 100	CC(=O)N[C@H]1CCCCNC(=O)CCC[C@@H](C(N)=O)NC(=O)[C@H]([C@@H](C)O)NC(=O)[C@](C)(C(C)C)NC(=O)[C@H](Cc2ccc(O)cc2)NC(=O)[C@H](C)NC(=O)C(C)(C)NC(=O)[C@H](Cc2c[nH]c3ncccc23)NC(=O)[C@H]([C@@H](C)O)NC(=O)[C@@H]2C[C@@H]3CN2C(=O)[C@H](Cc2ccc(O)cc2)NC(=O)[C@@H](NC1=O)C(C)(C)SCc1ccc(cc1)CS3 [Compound 349] (Ac-K[Pen]Y[X3]T[Trp(7-aza)][Aib]AY[αMeV]T[Aad]-NH2; lactam 1-12; thioether 2-4)
100 to 1000	1000 to 21000	CCC[C@@H]1NC(=O)[C@H](Cc2c[nH]c3ccc(F)cc23)NC(=O)[C@H]([C@@H](C)O)NC(=O)[C@H](Cc2c[nH]cn2)NC(=O)[C@H](Cc2ccc(O)cc2)NC(=O)[C@H](C(C)(C)C)NC(=O)CCSCc2cccc(c2)CSC[C@@H](C(N)=O)NC(=O)[C@H]([C@@H](C)O)NC(=O)[C@H](CCC)NC(=O)[C@H](Cc2ccc(O)cc2)NC(=O)[C@H](CCC(=O)O)NC1=O [Compound 263] ([Mpa][Tle]YHT[Trp(5-F)][Nva]EY[Nva]TC-NH2; linker 1-12 via mXylylene)
1 to 100	1 to 100	CCC[C@H](NC(C)=O)C(=O)N[C@H]1CSCc2cccc(c2)CSC[C@@H](C(N)=O)NC(=O)[C@H](Cc2c[nH]c3ccc(F)cc23)NC(=O)[C@@H]2C[C@H](F)CN2C(=O)[C@H](CCCNC(=N)N)NC(=O)CNC(=O)[C@H](CO)N(C)C(=O)[C@H](Cc2c[nH]c3ccc(F)cc23)NC(=O)[C@H](Cc2ccc(O)cc2)NC(=O)[C@H](C(C)(C)C)NC(=O)[C@H]([C@@H](C)CC)NC(=O)[C@H]([C@@H](C)O)NC1=O [Compound 337] (Ac-[Nva]CTI[Tle]Y[Trp(5-F)][NMeS]GR[Pro(cis-4-F)][Trp(5-F)]C-NH2; linker 2-13 via mXylylene)
1 to 100	1 to 100	CC(C)[C@]1(C)NC(=O)[C@H](Cc2ccc(O)cc2)NC(=O)[C@H](C)NC(=O)C2(CCC2)NC(=O)[C@H](Cc2c[nH]c3ncccc23)NC(=O)[C@H]([C@@H](C)O)NC(=O)[C@@H]2CCCN2C(=O)[C@H](Cc2ccc(O)cc2)NC(=O)[C@H](C(C)(C)C)NC(=O)[C@@H](NS(C)(=O)=O)CSCc2cccc(c2)CSC[C@H](C(N)=O)NC(=O)[C@H]([C@@H](C)O)NC1=O [Compound 192] (Ms-C[Tle]YPT[Trp(7-aza)][Ac4c]AY[αMeV]T[dC]-NH2; linker 1-12 via mXylylene)
